Format in all cases: cell-based
For one assay, the system named is 22Rv1 cells. Kind of assay: Colony formation assay, 22Rv1 cells. As to conditions: 2-63 1 μM plus BSO 5 μM, 24 h, then drug-free medium 11 days. Here is the method: Colony formation assay. Cells (22Rv1 or C4-2) were seeded in six-well plates (1,000/well) and cultured overnight. Cells were then treated with 2-63 (1 μM in 22Rv1; 2.5 μM in C4-2), BSO (5 μM) alone or in combination for 24 h. Cells were washed and cultured in a drug-free medium (22Rv1, 11 days; C4-2, 8 days). On the last day, the medium was removed, cells were washed with PBS and fixed with methanol. The colonies were stained with crystal violet solution for 3 h at room temperature and air-dried.

For assay [1], the target named is T1, FL AR and AR-V7 (Homo sapiens, UniProt P10275).
T1 construct: Whole cell lysates were subjected to Western blotting and probed with the indicated antibodies; endogenous in cells; host or cells: VCaP
T1 sequence (P10275 1-644 isoform P10275-3): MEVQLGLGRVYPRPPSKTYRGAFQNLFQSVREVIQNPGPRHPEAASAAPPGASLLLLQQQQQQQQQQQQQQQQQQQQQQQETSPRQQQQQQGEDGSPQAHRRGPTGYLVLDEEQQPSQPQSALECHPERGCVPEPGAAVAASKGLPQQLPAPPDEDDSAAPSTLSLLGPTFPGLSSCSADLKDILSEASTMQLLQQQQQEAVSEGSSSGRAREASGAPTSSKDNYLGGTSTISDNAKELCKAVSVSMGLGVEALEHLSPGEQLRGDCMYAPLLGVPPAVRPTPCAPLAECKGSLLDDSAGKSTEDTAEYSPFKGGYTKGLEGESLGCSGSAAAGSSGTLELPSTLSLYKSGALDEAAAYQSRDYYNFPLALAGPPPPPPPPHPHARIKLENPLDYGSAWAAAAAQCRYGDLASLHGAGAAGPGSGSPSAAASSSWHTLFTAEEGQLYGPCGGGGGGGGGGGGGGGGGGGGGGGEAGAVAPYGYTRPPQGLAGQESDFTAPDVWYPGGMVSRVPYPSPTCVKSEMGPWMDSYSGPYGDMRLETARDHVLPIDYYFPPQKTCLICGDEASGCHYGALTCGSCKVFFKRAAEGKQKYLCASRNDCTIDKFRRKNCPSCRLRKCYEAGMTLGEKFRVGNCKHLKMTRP
Nature of the assay: Western blotting of FL AR and AR-V7 in VCaP cells. As to conditions: full media, 16 h, 2-63, 12b 5 and 15 μM, Enz 10 μM. As to the method: (§1) Western Blotting. […] Proteins in cell lysates (40 μg) were separated using electrophoresis on SDS-PAGE and transferred onto PVDF (polyvinylidenedifluoride) membranes. Membranes were blocked in 5% fat-free milk followed by incubation with primary antibodies overnight at 4° C., and the secondary horseradish peroxidase-conjugated anti-rabbit or anti-mouse antibodies. The blots were developed in the Enhanced Chemiluminescence mixture and detected by ImageQuant™ LAS 4000 imaging system (GE). Density of protein bonds were calculated and analyzed by using imageJ software downloaded from the National Institute of Health website.
Background: Immunoblotting shows a protein as a band on a membrane.

Assay [2] deals with T2, FL AR and AR-V7 (Homo sapiens, UniProt P10275).
T2 construct: Whole cell lysates were subjected to Western blotting and probed with the indicated antibodies; endogenous in cells; host or cells: VCaP
T2 sequence (P10275 1-920): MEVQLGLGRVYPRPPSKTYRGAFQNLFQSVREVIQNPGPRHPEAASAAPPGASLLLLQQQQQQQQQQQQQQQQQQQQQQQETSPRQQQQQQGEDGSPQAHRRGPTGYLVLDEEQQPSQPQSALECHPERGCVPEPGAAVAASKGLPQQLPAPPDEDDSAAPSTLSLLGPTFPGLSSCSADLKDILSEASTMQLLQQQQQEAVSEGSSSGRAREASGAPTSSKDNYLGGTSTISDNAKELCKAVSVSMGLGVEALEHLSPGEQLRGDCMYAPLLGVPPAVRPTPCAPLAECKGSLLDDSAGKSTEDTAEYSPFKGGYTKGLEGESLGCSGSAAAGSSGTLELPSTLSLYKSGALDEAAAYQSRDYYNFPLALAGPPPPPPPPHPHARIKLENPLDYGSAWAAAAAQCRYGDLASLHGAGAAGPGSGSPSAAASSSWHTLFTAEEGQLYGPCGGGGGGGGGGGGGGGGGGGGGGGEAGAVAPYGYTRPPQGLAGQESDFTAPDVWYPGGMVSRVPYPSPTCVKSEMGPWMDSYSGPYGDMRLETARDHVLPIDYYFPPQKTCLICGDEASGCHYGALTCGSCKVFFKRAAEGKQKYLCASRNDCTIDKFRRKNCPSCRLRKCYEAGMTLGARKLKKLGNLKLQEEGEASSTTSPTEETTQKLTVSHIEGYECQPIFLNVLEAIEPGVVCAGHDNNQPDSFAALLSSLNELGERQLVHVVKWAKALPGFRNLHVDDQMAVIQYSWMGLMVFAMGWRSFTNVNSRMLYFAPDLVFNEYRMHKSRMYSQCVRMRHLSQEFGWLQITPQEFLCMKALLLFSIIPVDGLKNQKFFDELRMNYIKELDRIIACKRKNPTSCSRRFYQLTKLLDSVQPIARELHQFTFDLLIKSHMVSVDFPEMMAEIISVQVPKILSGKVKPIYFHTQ
Kind of assay: Western blotting of FL AR and AR-V7 in VCaP cells. The following applies: full media, 16 h, 2-63, 12b 5 and 15 μM, Enz 10 μM, SAHA 1 μM. Here is the method: as §1

For another assay, the system named is Sp1 and c-Myc. Nature of the assay: Western blotting of transcription factors in VCaP cells. The following applies: 5.0 and 10 μM, 24 h. Here is the method:
FL AR is a client protein of Hsp90, and AR-V7 might be chaperoned by Hsps other than Hsp90 (Moses, et al., Cancer Res. 2018, 78, 4022-4035). Because Hsp70 upregulation is an indicator of heat shock protein disruption (Kitson, et al., Nat. Chem. 2013, 5, 307-314) that causes client protein degradation, it was assessed whether 2-63 could change the protein stability of AR and AR-V7. […] 2-63-induced AR/AR-V7 downregulation was partially rescued by the proteasome inhibitor MG-132 (data not shown). This supports the involvement of proteasome degradation in AR reduction. Besides the posttranslational mechanisms, AR downregulation could also be caused by suppressing transcription factors (TFs) that drive the transcription of the AR gene. Sp1 and c-Myc were selected as representatives that could be affected by 2-63. Multiple Sp1 binding sites are located near the transcriptional initiation region of the AR gene.
Western Blotting. […] The protein concentration of supernatants was determined using the Pierce BCA Protein Assay Kit (Thermo Fisher, Cat #23225). […] The blots were developed in the Enhanced Chemiluminescence mixture and detected by ImageQuant™ LAS 4000 imaging system (GE). Density of protein bonds were calculated and analyzed by using imageJ software downloaded from the National Institute of Health website.

On to `CC(=O)N[C@H](CSC(=S)NCCCCCCc1ccc(N2C(=S)N(c3ccc(C#N)c(C(F)(F)F)c3)C(=O)C2(C)C)cn1)C(=O)O` [2-63, N-acetyl-S-((6-(5-(3-(4-cyano-3-(trifluoromethyl)phenyl)-5,5-dimethyl-4-oxo-2-thioxoimidazolidin-1-yl)pyridine-2-yl)hexyl)carbamothioyl)-D-cysteine], for which the “colony formation of 22Rv1 cells” value in the assay on 22Rv1 cells was “very efficiently suppressed colony formation”. Moreover, the AR-V7 expression entry at FL AR and AR-V7 [1] is listed as “dose-dependently decreased”. Moreover, at FL AR and AR-V7 [2], the “FL AR expression” value is on record as “dose-dependently decreased”. In the assay with Sp1 and c-Myc, the “Sp1 and c-Myc protein level” value is “dose-dependently reduced”.

For the origin of these results see patent publication US12133846B2, “Electrophilic androgen receptor (AR) antagonists for AR downregulation and ferroptosis induction in cancer cells” (priority 2019, dated 2024).
